Columns and labels:
Assay in all cases: CDKi biochemical assay (TR-FRET, phosphorylation of S780 on RB1 peptide)
CDK2/CyclinE1 = CDK2/CyclinE1 (Homo sapiens, UniProt P24941); conditions: CDK2/CyclinE1 100 pM, 1 mM ATP, 60 min at 25° C.
Description: (§1) Biochemical assays measured the inhibitory effects of compounds in this disclosure on the enzymatic activity of CDK enzyme in complex with Cyclin protein partner by phosphorylation of Ser-780 (S780) on retinoblastoma protein peptide (RB1) in the presence of 1 mM adenosime-5-triphosphate (ATP) and varying concentration of test compound in 20 mM 2-[4-(2-hydroxyethyl)paperazin-1-yl] ethanesulfonic acid (HEPES), pH 7.5, 10 mM MgCl2, 1 mM dithiothreitol (DTT), 0.01% bovine serum albumin (BSA), 0.005% Tween 20. Total Reaction volume of 10 μL proceeded for 60 minutes at room temperature (25° C.) and were quenched with 5 μL of 200 mM 2′,2″,2′″-(Ethane-1,2-diyldinitrilo)tetraacetic acid (EDTA) pH 8.0 before addition of 5 μL detection solution containing 100 nM fluorophore conjugate streptavidin allophycocyanin (SA-APC), 2 nM Europium labelled Anti-p-RB(S780)-K (Perkin Elmer, 64CUSKAY), 50 mM HEPES, pH 7.5, 400 mM potassium fluoride (KF), 0.1% BSA, and 0.01% Tween-20. Phosphorylation of S780 on RB1 peptide (His-MBP-RB1[773-924]-SEQ ID NO. 9) was detected by TR-FRET after 3 hour incubation with detection solution. Percent phosphorylation activity was plotted against log concentration of compound to generate an apparent ICSO. The following CDK enzyme in complex with different cyclin proteins and protein peptide substrate were used in these assays: • CDK1/CyclinB1, Avi-tag, 10 pM used in the assay • CDK2/CyclinE1, Avi-tag, 100 pM used in the assay • CDK4/cyclinD1, Avi-tag, 20 pM used in the assay • CDK6/cyclinD3, Avi-tag, 10 pM used in the assay • His-MBP-RB1[773-924], Avi-tag, 200 nM used in the assay
(§2) The avi-tag is a C-terminal fusion on the CDK1/2/4/6 sequence in each of these two-protein complexes. The known avi-tag sequence, […] (SEQ ID NO. 10), is a substrate for E. coli biotin ligase BirA, which covalently attaches a biotin molecule to the e-amino group of the lysine in that sequence. The avi-tag is attached with an 8 amino-acid linker sequence GGSGGGGS (SEQ ID NO. 11), resulting in the full C-terminal fusion
(§3) Recombinant proteins were generated as N-terminal fusions of 9× His tag—E. coli Maltose Binding Protein (MBP), with or without a C-terminal Avi-tag.^1 CDK2 and His-MBP-RB1[773-924]-c-avi were expressed in E. coli while the remainder were expressed in Sf21 insect cells. Genes were synthesized commercially (GeneArt and Twist Bioscience) using codon frequencies appropriate to the respective organisms and proprietary codon optimization strategies, and inserted into pET 24 (E. coli) or pDEST8 (insect) vectors already containing the 9× His-MBP tag using standard methods of PCR and Gibson Assembly.^2 E. coli expression was performed by auto-induction overnight at 18 or 21 C. For insect cell expression, bacmids and viruses were created,^3 then used to synchronously infect Sf21 insect cells with harvest at 40-48 hrs., per standard protocols.^4
(§4) For CDK2/Cyclin E and CDK1/Cyclin B, the CDK and Cyclin proteins were expressed separately, lysed by sonication and clarified by centrifugation. The fusion proteins were each separately purified by immobilized metal ion affinity chromatography (IMAC) (5 mL HisTrap, Cytiva) and Superdex 200 26/60 (Cytiva) size-exclusion and complexed in vitro (1-3 hrs incubation at room temperature) prior to tag cleavage by recombinant his-tagged Tobacco Etch Virus protease or his-tagged Human rhinovirus 3C protease, as appropriate. The cleaved complex is further purified by Superdex 75 26/60 (Cytiva) size-exclusion followed by reverse-IMAC, in which the complex is in the column flow-through and residual His-MBP and his-tagged proteases are retained. The final complex is concentrated as desired by centrifugal concentration (Amicon Ultra 10,000 Da MWCO 15 mL concentrators, Millipore).
For E. coli expressed CDK2 and His-MBP-RB1[773-924]-c-avi, the proteins were biotinylated in vitro after the first IMAC step.^1
(§5) For the is-MBP-RB1[773-924]-c-avi, the protein was lysed by sonication and clarified by centrifugation. […]

CDK1/CyclinB1 = CDK1/CyclinB1 (Homo sapiens, UniProt P06493); conditions: CDK1/CyclinB1 10 pM, 1 mM ATP, 60 min at 25° C.
Description: as §1, §2, §3, §4, §5

CDK4/cyclinD1 = CDK4/cyclinD1 (Homo sapiens, UniProt P11802); conditions: CDK4/cyclinD1 20 pM, 1 mM ATP, 60 min at 25° C.
Description: as §1, §2, §3
(§6) For CDK4/Cyclin D1 and CDK6/Cyclin D3, the complexes were expressed by simultaneous co-infection of insect cells by three separate viruses including one expressing untagged E. coli BirA. The expression media is supplemented with 50 uM d-biotin. The resulting protein complexes purified similarly. After lysis and clarification, the complex is purified by IMAC, Superdex 200 26/60 size exclusion, tag cleavage by human rhinovirus 3C protease, Superdex 75 26/60 size exclusion and reverse IMAC. BirA is typically not retained on the first IMAC, and excess CDK or Cyclin monomer is separated on the Superdex 200 size exclusion. Cleaved His-MBP and remaining monomer are removed by the Superdex 75 size exclusion and the reverse IMAC step. Final concentration by centrifugal concentrators as described above.
as §5

CDK6/cyclinD3 = CDK6/cyclinD3 (Homo sapiens, UniProt Q00534); conditions: CDK6/cyclinD3 10 pM, 1 mM ATP, 60 min at 25° C.
Description: as §1, §2, §3, §6, §5

Structure (SMILES) | IC50 (CDK2/CyclinE1) [nM] | IC50 (CDK1/CyclinB1) [nM] | IC50 (CDK4/cyclinD1) [nM] | IC50 (CDK6/cyclinD3) [nM]
O=C1N([C@@H]2CCC[C@@H](O)C2)c2nc(Nc3c[nH]nc3C3CC3)ncc2C12CC2 [Example 14, 2′-((3-cyclopropyl-1H-pyrazol-4-yl)amino)-7′-((1R,3R)-3-hydroxycyclohexyl)spiro[cyclopropane-1,5′-pyrrolo[2,3-d]pyrimidin]-6′(7′H)-one] | 30 | 1550 | ≥ 10000 | ≥ 10000
O=C1N([C@@H]2CCC[C@@H](O)C2)c2nc(Nc3c[nH]nc3C(F)(F)F)ncc2C12CC2 [Example 15, 7′-((1R,3R)-3-hydroxycyclohexyl)-2′-((3-(trifluoromethyl)-1H-pyrazol-4-yl)amino)spiro[cyclopropane-1,5′-pyrrolo[2,3-d]pyrimidin]-6′(7′H)-one] | 39 | 3720 | ≥ 10000 | ≥ 10000
COCCn1cc(Nc2ncc3c(n2)N([C@@H]2CCC[C@@H](O)C2)C(=O)C32CC2)cn1 [Example 16, 7′-((1R,3R)-3-hydroxycyclohexyl)-2′-((1-(2-methoxyethyl)-1H-pyrazol-4-yl)amino)spiro[cyclopropane-1,5′-pyrrolo[2,3-d]pyrimidin]-6′(7′H)-one] | 49 | 2360 | 1230 | 1800
Cc1n[nH]cc1Nc1ncc2c(n1)N([C@@H]1CCCC[C@@H](O)C1)C(=O)C21CC1 [Example 17, 7′-(3-hydroxycycloheptyl)-2′-((3-methyl-1H-pyrazol-4-yl)amino)spiro[cyclopropane-1,5′-pyrrolo[2,3-d]pyrimidin]-6′(7′H)-one] | 41 | 4490 | ≥ 10000 | ≥ 10000
O=C1N([C@@H]2CCCC[C@@H](O)C2)c2nc(Nc3c[nH]nc3Cl)ncc2C12CC2 [Example 19, 2′-((3-chloro-1H-pyrazol-4-yl)amino)-7′-((1R,3R)-3-hydroxycycloheptyl)spiro[cyclopropane-1,5′-pyrrolo[2,3-d]pyrimidin]-6′(7′H)-one] | 44 | 4120 | 7580 | 9160
N#Cc1n[nH]cc1Nc1ncc2c(n1)N([C@@H]1CCC[C@@H](O)C1)C(=O)C21CC1 [Example 20, 4-((7′-((1R,3R)-3-hydroxycyclohexyl)-6′-oxo-6′,7′-dihydrospiro[cyclopropane-1,5′-pyrrolo[2,3-d]pyrimidin]-2′-yl)amino)-1H-pyrazole-3-carbonitrile] | 8 | 660 | 2160 | 2660
COCc1n[nH]cc1Nc1ncc2c(n1)N([C@@H]1CCC[C@@H](O)C1)C(=O)C21CC1 [Example 21, 7′-((1R,3R)-3-hydroxycyclohexyl)-2′-((3-(methoxymethyl)-1H-pyrazol-4-yl)amino)spiro[cyclopropane-1,5′-pyrrolo[2,3-d]pyrimidin]-6′(7′H)-one] | 17 | 2500 | 2260 | 4460
COCCOc1n[nH]cc1Nc1ncc2c(n1)N([C@@H]1CCC[C@@H](O)C1)C(=O)C21CC1 [Example 22, 7′-((1R,3R)-3-hydroxycyclohexyl)-2′-((3-(2-methoxyethoxy)-1H-pyrazol-4-yl)amino)spiro[cyclopropane-1,5′-pyrrolo[2,3-d]pyrimidin]-6′(7′H)-one] | 34 | 2960 | 5260 | 8120
CCOc1n[nH]cc1Nc1ncc2c(n1)N([C@@H]1CCC[C@@H](O)C1)C(=O)C21CC1 [Example 23, 2′-((3-ethoxy-1H-pyrazol-4-yl)amino)-7′-((1R,3R)-3-hydroxycyclohexyl)spiro[cyclopropane-1,5′-pyrrolo[2,3-d]pyrimidin]-6′(7′H)-one] | 15 | 2430 | 9450 | ≥ 10000
O=C1N([C@@H]2CCC[C@@H](O)C2)c2nc(Nc3c[nH]nc3O[C@@H]3COC[C@H]3F)ncc2C12CC2 [Example 24, 2′-((3-(((3R,4R)-4-fluorotetrahydrofuran-3-yl)oxy)-1H-pyrazol-4-yl)amino)-7′-((1R,3R)-3-hydroxycyclohexyl)spiro[cyclopropane-1,5′-pyrrolo[2,3-d]pyrimidin]-6′(7′H)-one] | 12 | 2020 | 3910 | ≥ 10000
O=C1N([C@@H]2CCC[C@@H](O)C2)c2nc(Nc3c[nH]nc3O[C@H]3COC[C@@H]3F)ncc2C12CC2 [Example 25, 2′-((3-(((3S,4S)-4-fluorotetrahydrofuran-3-yl)oxy)-1H-pyrazol-4-yl)amino)-7′-((1R,3R)-3-hydroxycyclohexyl)spiro[cyclopropane-1,5′-pyrrolo[2,3-d]pyrimidin]-6′(7′H)-one] | 24 | 2440 | ≥ 10000 | ≥ 10000
O=C1N([C@@H]2CCC[C@@H](O)C2)c2nc(Nc3c[nH]nc3O[C@@H]3COC[C@@H]3F)ncc2C12CC2 [Example 26, 2′-((3-(((3R,4S)-4-fluorotetrahydrofuran-3-yl)oxy)-1H-pyrazol-4-yl)amino)-7′-((1R,3R)-3-hydroxycyclohexyl)spiro[cyclopropane-1,5′-pyrrolo[2,3-d]pyrimidin]-6′(7′H)-one] | 59 | ≥ 10000 | 5350 | 8500
O=C1N([C@@H]2CCC[C@@H](O)C2)c2nc(Nc3c[nH]nc3O[C@H]3COC[C@H]3F)ncc2C12CC2 [Example 27, 2′-((3-(((3S,4R)-4-fluorotetrahydrofuran-3-yl)oxy)-1H-pyrazol-4-yl)amino)-7′-((1R,3R)-3-hydroxycyclohexyl)spiro[cyclopropane-1,5′-pyrrolo[2,3-d]pyrimidin]-6′(7′H)-one] | 11 | 1920 | 1280 | 3180
O=C1N([C@@H]2CCC[C@@H](O)C2)c2nc(Nc3c[nH]nc3-c3cnn4ccccc34)ncc2C12CC2 [Example 28, 7′-((1R,3R)-3-hydroxycyclohexyl)-2′-((3-(pyrazolo[1,5-a]pyridin-3-yl)-1H-pyrazol-4-yl)amino)spiro[cyclopropane-1,5′-pyrrolo[2,3-d]pyrimidin]-6′(7′H)-one] | 11 | 1180 | 2120 | 2540
